Measured values taken from patent US11274082B2, “Tead inhibitors and uses thereof” (Ikena Oncology, Inc., priority 2019, dated 2022).

Experiments:
[1] = system: TEAD; assay: TEAD reporter assay (Hippo Pathway TEAD Reporter - MCF7 cell line, luciferase); assay type: cell-based; conditions: Homo sapiens; TEAD Reporter - MCF7 cells; read-out: TEAD Reporter Assay EC50
Source text: TEAD inhibition can be assayed using Hippo Pathway TEAD Reporter—MCF7 Cell Line (BPS Bioscience, Catalog #: 60618).
The TEAD Reporter—MCF7 cell line contains the firefly luciferase gene under the control of TEAD responsive elements stably integrated into the human breast cancer cell line, MCF7. Inside the cells, basal unphosphorylated YAP/TAZ remains in the nucleus and induces the constitutive expression of luciferase reporter. The cell line is validated for the inhibition of the expression of luciferase reporter by the activators of the Hippo pathway.
• 1) Harvest TEAD Reporter—MCF7 cells from culture in growth medium and seed cells at a density of 35,000 cells per well into white clear-bottom 96-well microplate in 45 μl of assay medium. • 2) Incubate cells at 37° C. in a CO2 incubator for overnight. • 3) Dilute the activators (H2O2 or okadaic acid) stock in assay medium. Add 5 μl of diluted activators to the wells. The final concentration of DMSO in assay medium is 0.1%. • 4) Add 5 μl of assay medium with same concentration of DMSO without activator to control wells. • 5) Add 50 μl of assay medium with DMSO to cell-free control wells (for determining background luminescence). • 6) Set up each treatment in at least triplicate. • 7) Incubate cells at 37° C. in a CO2 incubator for 5-6 hours. • 8) Perform luciferase assay using the ONE-Step™ Luciferase Assay System following the protocol provided: Add 100 μl of ONE-Step™ Luciferase reagent per well and rock at room temperature for ˜15 minutes. Measure luminescence using a luminometer. • 9) Data Analysis: Obtain the background-subtracted luminescence by subtracting the average background luminescence (cell-free control wells) from the luminescence reading of all wells.
(§1) Certain compounds were tested in TEAD reporter assay, and in H226 and H28. A: EC50<0.1 uM; B: 0.1 uM≤EC50≤0.5 uM; C: EC50>0.5 uM.

[2] = system: H226; assay: Anti-proliferation assay in H226 cells; assay type: cell-based; conditions: Homo sapiens, NCI-H226; H226 cells; read-out: H226 EC50
Description: as §1
Individual cell lines were grown in medium according to supplier instructions and seeded into 96-well plates at a density that ensured logarithmic growth over 72 hours. TEAD inhibitor compounds were administered to cells at a top concentration of 10 μm and subsequently a 10 point 3-fold serial dilution was conducted. After 72 hours, proliferation was quantified using Cell TITERGLO™ (Promega, Inc.) and compared to vehicle control. IC50 and EC50 values were generated using XLFit curve fitting software.

Structure (SMILES)	EC50 [1] [nM]	EC50 [2] [nM]
CNS(=O)(=O)c1ccc(Nc2cc(C(F)(F)F)ccn2)c(-c2cn(C3CC3)cn2)c1 [I-54, 3-(1-Cyclopropylimidazol-4-yl)-N-methyl-4-[[4-(trifluoromethyl)-2-pyridyl]amino]benzenesulfonamide]	< 100	< 100
CNS(=O)(=O)c1ccc(Nc2cc(C(F)(F)F)ccn2)c(-c2cn(C(C)C)cn2)c1 [I-55, 3-(1-Isopropylimidazol-4-yl)-N-methyl-4-[[4-(trifluoromethyl)-2-pyridyl]amino]benzenesulfonamide]	100 to 500	< 100
CNS(=O)(=O)c1ccc(N[C@H](C)c2ccc(C(F)(F)F)cc2)c(-c2cn(C)cn2)c1 [I-56, N-Methyl-3-(1-methylimidazol-4-yl)-4-[[(1R)-1-[4-(trifluoromethyl)phenyl]ethyl]amino]benzenesulfonamide]	100 to 500	100 to 500
CNS(=O)(=O)c1ccc(N[C@@H](C)c2ccc(C(F)(F)F)cc2)c(-c2cn(C)cn2)c1 [I-57, N-Methyl-3-(1-methylimidazol-4-yl)-4-[[(1S)-1-[4-(trifluoromethyl)phenyl]ethyl]amino]benzenesulfonamide]	> 500	> 500
CNS(=O)(=O)c1ccc(NCc2ccc(OC(F)(F)F)cc2)c(-c2cn(C)cn2)c1 [I-60, N-Methyl-3-(1-methyl-1H-imidazol-4-yl)-4-((4-(trifluoromethoxy)benzyl)amino)benzenesulfonamide]	100 to 500	100 to 500
CNS(=O)(=O)c1ccc(NCc2ccccc2)c(-c2nnc(C)o2)c1 [I-61, 4-(Benzylamino)-N-methyl-3-(5-methyl-1,3,4-oxadiazol-2-yl)benzenesulfonamide]	> 500	100 to 500
CNS(=O)(=O)c1ccc(Nc2cc(C(F)(F)F)ccn2)c(-c2nnc(C)o2)c1 [I-62, N-Methyl-3-(5-methyl-1,3,4-oxadiazol-2-yl)-4-[[4-(trifluoromethyl)-2-pyridyl]amino]benzenesulfonamide]	100 to 500	100 to 500
CNS(=O)(=O)c1ccc(N[C@H](C)c2cccc(C(F)(F)F)c2)c(-c2cn(C)cn2)c1 [I-63, N-Methyl-3-(1-methylimidazol-4-yl)-4-[[(1R)-1-[3-(trifluoromethyl)phenyl]ethyl]amino]benzenesulfonamide]	100 to 500	100 to 500
CNS(=O)(=O)c1ccc(NCc2ccc3c(c2)OCO3)c(-c2cn(C)cn2)c1 [I-64, 4-(1,3-Benzodioxol-5-ylmethylamino)-N-methyl-3-(1-methylimidazol-4-yl)benzenesulfonamide]	100 to 500	100 to 500
CCNS(=O)(=O)c1ccc(Nc2ccc(C(F)(F)F)cn2)c(-c2cn(C)cn2)c1 [I-65, N-ethyl-3-(1-methylimidazol-4-yl)-4-[[5-(trifluoromethyl)-2-pyridyl]amino]benzenesulfonamide]	< 100	< 100
CC(C)NS(=O)(=O)c1ccc(Nc2cc(C(F)(F)F)ccn2)c(-c2cn(C)cn2)c1 [I-66, N-Isopropyl-3-(1-methylimidazol-4-yl)-4-[[4-(trifluoromethyl)-2-pyridyl]amino]benzenesulfonamide]	> 500	100 to 500
CNS(=O)(=O)c1ccc(Nc2ccc(C(F)(F)F)cn2)c(-c2cn(C3CCC3)cn2)c1 [I-67, 3-(1-Cyclobutylimidazol-4-yl)-N-methyl-4-[[5-(trifluoromethyl)-2-pyridyl]amino]benzenesulfonamide]	< 100	< 100
CNS(=O)(=O)c1ccc(NCc2ccc(C(F)(F)F)cc2F)c(-c2cn(C)cn2)c1 [I-68, 4-[[2-Fluoro-4-(trifluoromethyl)phenyl]methylamino]-N-methyl-3-(1-methylimidazol-4-yl)benzenesulfonamide]	< 100	< 100
CNS(=O)(=O)c1ccc(NCc2cccc(OC(F)(F)F)c2)c(-c2cn(C)cn2)c1 [I-69, A-Methyl-3-(1-methylimidazol-4-yl)-4-[[3-(trifluoromethoxy)phenyl]methylamino]benzenesulfonamide]	100 to 500	< 100
CNS(=O)(=O)c1ccc(NCc2ccc(C(F)(F)F)cn2)c(-c2cn(C)cn2)c1 [I-70, N-Methyl-3-(1-methylimidazol-4-yl)-4-[[5-(trifluoromethyl)-2-pyridyl]methylamino]benzenesulfonamide]	100 to 500	< 100
CNS(=O)(=O)c1ccc(Nc2ccc(C(F)(F)F)cn2)c(-c2cn(Cc3ccccc3)cn2)c1 [I-71, 3-(1-Benzylimidazol-4-yl)-N-methyl-4-[[5-(trifluoromethyl)-2-pyridyl]amino]benzenesulfonamide]	100 to 500	100 to 500
CNS(=O)(=O)c1ccc(NCc2ccc3scnc3c2)c(-c2cn(C)cn2)c1 [I-72, 4-(1,3-Benzothiazol-5-ylmethylamino)-N-methyl-3-(1-methylimidazol-4-yl)benzenesulfonamide]	< 100	100 to 500
CNS(=O)(=O)c1ccc(NCc2ccc3ncsc3c2)c(-c2cn(C)cn2)c1 [I-73, 4-(1,3-Benzothiazol-6-ylmethylamino)-N-methyl-3-(1-methylimidazol-4-yl)benzenesulfonamide]	> 500	100 to 500
CNS(=O)(=O)c1ccc(NCc2ccccc2C(F)(F)F)c(-c2cn(C)cn2)c1 [I-74, N-Methyl-3-(1-methylimidazol-4-yl)-4-[[2-(trifluoromethyl)phenyl]methylamino]benzenesulfonamide]	< 100	< 100
CNS(=O)(=O)c1ccc(Nc2ccc(C(F)(F)F)nc2)c(-c2cn(C)cn2)c1 [I-75, N-Methyl-3-(1-methylimidazol-4-yl)-4-[[6-(trifluoromethyl)-3-pyridyl]amino]benzenesulfonamide]	< 100	< 100
CNS(=O)(=O)c1ccc(NCc2ccc(C(F)(F)F)nc2)c(-c2cn(C)cn2)c1 [I-76, N-Methyl-3-(1-methyl-1H-imidazol-4-yl)-4-(((6-(trifluoromethyl)pyridin-3-yl)methyl)amino)benzenesulfonamide]	> 500	100 to 500
CNS(=O)(=O)c1ccc(Nc2ccc(C(F)(F)F)nn2)c(-c2cn(C)cn2)c1 [I-77, N-Methyl-3-(1-methylimidazol-4-yl)-4-[[6-(trifluoromethyl)pyridazin-3-yl]amino]benzenesulfonamide]	> 500	100 to 500
CNS(=O)(=O)c1ccc(Nc2ncc(C(F)(F)F)cn2)c(-c2cn(C)cn2)c1 [I-78, N-Methyl-3-(1-methylimidazol-4-yl)-4-[[5-(trifluoromethyl)pyrimidin-2-yl]amino]benzenesulfonamide]	< 100	< 100
CNS(=O)(=O)c1ccc(Nc2ccc(C3CC3)cn2)c(-c2cn(C)cn2)c1 [I-79, 4-[(5-Cyclopropyl-2-pyridyl)amino]-N-methyl-3-(1-methylimidazol-4-yl)benzenesulfonamide]	100 to 500	< 100
CNS(=O)(=O)c1ccc(Nc2ccc(C(C)(C)C)cn2)c(-c2cn(C)cn2)c1 [I-80, 4-[(5-tert-Butyl-2-pyridyl)amino]-N-methyl-3-(1-methylimidazol-4-yl)benzenesulfonamide]	< 100	< 100
CNS(=O)(=O)c1ccc(Nc2ccc(C(F)(F)F)cn2)c(-c2cn(Cc3ccccc3F)cn2)c1 [I-81, 3-[1-[(2-Fluorophenyl)methyl]imidazol-4-yl]-N-methyl-4-[[5-(trifluoromethyl)-2-pyridyl]amino]benzenesulfonamide]	< 100	< 100
CNS(=O)(=O)c1ccc(Nc2ccc(C(F)(F)F)cc2)c(-c2cn(C)cn2)c1 [I-82, N-Methyl-3-(1-methyl-1H-imidazol-4-yl)-4-((4-(trifluoromethyl)phenyl)amino)benzenesulfonamide]	< 100	< 100
CNS(=O)(=O)c1ccc(N[C@@H](C)c2cccc(C(F)(F)F)c2)c(-c2cn(C)cn2)c1 [I-83, N-Methyl-3-(1-methylimidazol-4-yl)-4-[[(1S)-1-[3-(trifluoromethyl)phenyl]ethyl]amino]benzenesulfonamide]	100 to 500	< 100
CNS(=O)(=O)c1ccc(Nc2ccc(OC(F)(F)F)cn2)c(-c2cn(C)cn2)c1 [I-84, N-Methyl-3-(1-methylimidazol-4-yl)-4-[[5-(trifluoromethoxy)-2-pyridyl]amino]benzenesulfonamide]	< 100	< 100
